Assay [1] concerns Enterobacteriaceae. In words: Antimicrobial activity against non-integron carrying Enterobacteriaceae assessed as percent resistant isolates. It counts as functional.
For assay [2], the system named is Enterobacteriaceae. Description: Antimicrobial activity against integron carrying Enterobacteriaceae assessed as percent resistant isolates. It counts as functional.

On to `NC[C@H]1O[C@H](O[C@H]2[C@H](O)[C@@H](O[C@H]3O[C@H](CO)[C@@H](O)[C@H](N)[C@H]3O)[C@H](N)C[C@@H]2N)[C@H](N)C[C@@H]1O` [TOBRAMYCIN], for which the Activity with Enterobacteriaceae [1] is 8.5%; in the assay on Enterobacteriaceae [2] it was 41.8%.
As for `CCN1CCN(C(=O)N[C@@H](C(=O)N[C@@H]2C(=O)N3[C@@H]2SC(C)(C)[C@@H]3C(=O)O)c2ccccc2)C(=O)C1=O` [PIPERACILLIN], the Activity stood at 32.1% in the assay on Enterobacteriaceae [1] and 90.2% in the assay on Enterobacteriaceae [2].
Regarding `CO/N=C(\C(=O)N[C@@H]1C(=O)N2C(C(=O)O)=C(COC(C)=O)CS[C@H]12)c1csc(N)n1` [CEFOTAXIME], the Activity in the assay on Enterobacteriaceae [1] was found to be 6.9%; in the assay with Enterobacteriaceae [2], 41.3%.
As to `CO/N=C(\C(=O)N[C@@H]1C(=O)N2C(C(=O)[O-])=C(C[N+]3(C)CCCC3)CS[C@H]12)c1csc(N)n1` [CEFEPIME], the values for the Activity in the assay with Enterobacteriaceae [1] and in the assay with Enterobacteriaceae [2] were 6.2% and 29.5%, respectively.
As to `CC(C)(O/N=C(\C(=O)N[C@@H]1C(=O)N2C(C(=O)[O-])=C(C[n+]3ccccc3)CS[C@H]12)c1csc(N)n1)C(=O)O` [CEFTAZIDIME], the Activity in the assay on Enterobacteriaceae [1] is on record as 4.9%; in the assay on Enterobacteriaceae [2], 36.3%.
With `CO/N=C(\C(=O)N[C@@H]1C(=O)N2C(C(=O)O)=C(COC(N)=O)CS[C@H]12)c1ccco1` [CEFUROXIME], the Activity in the assay on Enterobacteriaceae [1] was found to be 21.9%; in the assay on Enterobacteriaceae [2] it was 46.9%.
`CC1(C)S[C@@H]2[C@H](NC(=O)[C@H](N)c3ccccc3)C(=O)N2[C@H]1C(=O)O` [AMPICILLIN]: the Activity with Enterobacteriaceae [1] was 60%; in the assay on Enterobacteriaceae [2], 96.3%.
For the compound `CO[C@@]1(NC(=O)Cc2cccs2)C(=O)N2C(C(=O)O)=C(COC(N)=O)CS[C@@H]21` (single isomer, unassigned) [CEFOXITIN], the Activity with Enterobacteriaceae [1] is 16.6%; with Enterobacteriaceae [2] it was 40%.
Consider `C[C@@H](O)[C@H]1C(=O)N2C(C(=O)O)=C(S[C@@H]3CN[C@H](C(=O)N(C)C)C3)[C@H](C)[C@H]12` [MEROPENEM], for which the Activity in the assay on Enterobacteriaceae [1] stood at 2%; in the assay with Enterobacteriaceae [2] it was 6%.
As to `NCC[C@H](O)C(=O)N[C@@H]1C[C@H](N)[C@@H](O[C@H]2O[C@H](CN)[C@@H](O)[C@H](O)[C@H]2O)[C@H](O)[C@H]1O[C@H]1O[C@H](CO)[C@@H](O)[C@H](N)[C@H]1O` [AMIKACIN], the Activity worked out at 4.2% in the assay on Enterobacteriaceae [1] and 29.7% with Enterobacteriaceae [2].
On to COLISTIMETHATE SODIUM, for which the Activity in the assay with Enterobacteriaceae [1] and in the assay with Enterobacteriaceae [2] was 12.5% throughout.
In the case of `O=C(O)c1cn(C2CC2)c2cc(N3CCNCC3)c(F)cc2c1=O` [CIPROFLOXACIN], the Activity with Enterobacteriaceae [1] is given as 6.9%; in the assay with Enterobacteriaceae [2], 49.4%.
As to `COc1cc(Cc2cnc(N)nc2N)cc(OC)c1OC.Cc1cc(NS(=O)(=O)c2ccc(N)cc2)no1` [CO-TRIMOXAZOLE], the Activity in the assay on Enterobacteriaceae [1] came to 14.5%; in the assay with Enterobacteriaceae [2] it was 87.7%.
The like results for `C[C@H]1[C@H](NC(=O)/C(=N\OC(C)(C)C(=O)O)c2csc(N)n2)C(=O)N1S(=O)(=O)O` [AZTREONAM] were, in that order, 9.4% and 26.9%.
The like results for `C[C@@H](O)[C@H]1C(=O)N2C(C(=O)O)=C(SCCNC=N)C[C@H]12` [IMIPENEM ANHYDROUS] were, in that order, 1.2% and 7.6%.

The values are drawn from ChEMBL document CHEMBL1150792, “Enterobacteriaceae bloodstream infections: presence of integrons, risk factors, and outcome” (2007).
